Laboratory results: patent publication US20230250433A1, “METHODS AND COMPOSITIONS FOR TREATMENT OF APC-DEFICIENT CANCER” (Board of Regents, The University of Texas System, priority 2020, published 2023)

Tests used:
[1] = tested on: APC intact cells including CCD-841-CoN cells; assay: Crystal violet staining after 680C91 treatment, APC intact cells; format: cell-based, human; conditions: 680C91 dose-dependent, 48 hr, normal colon epithelial cells included
[2] = tested on: APC deficient cell lines; assay: Crystal violet staining after 680C91 treatment, APC deficient cell lines; format: cell-based, human; conditions: 680C91 dose-dependent, 48 hr
[3] = tested on: APC-WT and APC-KO MC38 cell lines; assay: Crystal violet staining of APC-WT and APC-KO MC38 cell lines after 680C91; format: cell-based, mouse; conditions: APC-KO vs APC-WT MC38, dose-dependent, 48 hr
[4] = tested on: APC-KO MC38 cells; assay: Cell death (caspase-3 assay, colony formation) with 680C91 alone and 680C91/Kyn; format: cell-based, mouse
Method: (§1) Normalized enrichment score (NES) and nominal P value are shown. […] The P value and R-square value are shown. […] Representative images of triplicate studies are shown. Scale bar, 100 μm. […] Dox food was applied at day 5 post-orthotopic injection to induce TDO2 knockdown in vivo (shControl, n=7, Dox, n=8, shAhR #1, #2, n=7). ***P<0.001. two-tailed t-test.
(§2) To assess the roles of TDO2-Kyn-AhR axis in cancer relevant processes, colony formation assays were performed using the APC-KO MC38 ishTDO2 cell lines and APC-KO MC38 shAhR cell lines. […] Thus, the TDO2-Kyn-Ahr axis supports APC-null cancer cell proliferation and survival and its tumorigenic potential.
(§3) Cell lysates were prepared with RIPA lysis buffer (Roche) with protease inhibitor […] Immunoblotting was performed following standard protocol. Antibodies were purchased from the indicated companies.
(§4) Colorectal cancer cell proliferation in vitro was assayed through colony formation. 1×10^3 cells were seeded in each well of 6-well plates and cultured for 5-7 days. At the end point, cells were fixed and stained with 0.5% crystal violet in 25% methanol for 1 hr. These studies were performed in triplicate.

[5] = tested on: APC-WT MC38 orthotopic tumors; assay: Survival of C57BL/6J mice orthotopically implanted with APC-WT MC38 cells; format: in vivo, mouse; conditions: 100 mg/kg twice a day by oral gavage from day 5 post-injection
From the text: (§5) Induction of shTDO2 is indicated by GFP (highlighted with arrows). X63 magnification. […] Dox food was provided at day 5 after injection to induced TDO2 knockdown in vivo (n=5 per group). […] Scale bar, 100μm. […] Dox food was applied at day 5 post-orthotopic injection to induce TDO2 knockdown in vivo (ishTDO2 APC-WT MC38, n=5, ishTDO2 APC-WT+Dox MC38 and ishTDO2 APC-KO MC38, n=6, ishTDO2 APC-KO MC38+Dox, n=7). n.s.P>0.05, **P<0.01, ***P<0.001. two-tailed t-test. […] Dox food was applied at day 5 post-orthotopic injection to induce TDO2 knockdown in vivo (n=8 per group). n.s.P>0.05, **P<0.01, ***P<0.001. two-tailed t-test. FIGS. 4N and 4O show survival curves of C57BL/6J mice orthotopically implanted with APC-WT and APC-KO MC38 cell lines ([…]) treated with TDO2 inhibitor (FIG. 4N) or Epacadostat (FIG. 4O). TDO2 inhibitor and Epacadostat treatment (100 mg/kg) was initiated at day 5 post-injection twice a day by oral gavage. n.s.P>0.05, *P<0.05, ***P<0.001. Log-rank (Mantel-Cox) test. […] Scale bars, ×10 (200 μm).
(§6) The inventors synthesized the TDO2 inhibitor PF06845102/EOS200809 (“TDO2i”), which has been documented to inhibit TDO2 activity in vivo (Schramme et al., Cancer Immunol Res. 2020 January; 8(1):32-45; incorporated herein by reference in its entirety) and administrated the drug by oral gavage to mice bearing APC-WT or APC-KO MC38 orthotopic tumors. […]

[6] = tested on: APC-KO MC38 orthotopic tumors; assay: Survival of C57BL/6J mice orthotopically implanted with APC-KO MC38 cells; format: in vivo, mouse; conditions: 100 mg/kg twice a day by oral gavage from day 5 post-injection
From the text: as §5, §6

[7] = tested on: iKAP cell lysates; assay: Cleaved Caspase-3 immunoblot in iKAP cells, 680C91 alone and 680C91/Kyn; format: cell-based, mouse; conditions: 680C91/Kyn vs 680C91 alone
Method: as §1, §2, §3

[8] = tested on: BMDM; assay: RT-qPCR of M2 macrophage signature genes in BMDM; format: cell-based, mouse; conditions: CXCL5 50 ng, Kyn 1 mM, 24 hr
Method: Scale bars, 50μm. […] Scale bars, 100 μm. […] (isTDO2 and isTDO2/shCXCL5 #2 groups, n=7, isTDO2/shCXCL5 #3, n=8). ****P<0.0001. two-tailed t-test. […] (shControl and shCXCL5 #2 groups, n=7, shCXCL5 #3, n=8). ****P<0.0001. two-tailed t-test.
(§7) RNA was isolated from cells using Trizol (Invitrogen) following the manufacturer's instructions. RNA (200-500 ng) was first treated with RNase-free DNase I using the DNA-free kit (Ambion) to remove all genomic DNA, and then reverse-transcribed into cDNA using an ABI High Capacity cDNA RT Kit (Invitrogen). The cDNA was analyzed using real-time quantitative PCR (SYBR Green, Invitrogen) with an Applied Biosystems 7900 Sequence Detection System. Each reaction was performed in triplicate. The expression of each gene was normalized by that of mouse Actin or human GAPDH.

[9] = tested on: BMDM; assay: RT-qPCR analysis of Gas6 expression in BMDM; format: cell-based, mouse; conditions: Kyn 1 mM, CXCL5 50 ng, Gas6 25 ng, 24 hr
Method: (§8) The red box indicates Axl. […] Six replicates per group. two-tailed t-test. *P<0.05. […] Epithelial cells are stained with EpCam and indicated by GFP. X63 magnification. […] Total flux measurement of at the end point. **P<0.01. two-tailed t-test. […] Total flux measurement of tumors was done at the end point. **P<0.01. two-tailed t-test.
To evaluate whether secreted factors from cancer cells might upregulate Gas6 expression in macrophages, BMDMs were incubated with conditioned media from MC38 cell lines. […] (FIG. 15H). Finally, to validate the roles of Gas6 in promoting tumor growth in vivo, CT26 cell lines and two independent Raw 264.7 shGas6 cell lines were co-injected into syngeneic Balb/CJ mice (FIG. 15I).
as §7

[10] = tested on: APC-KO MC38 cells; assay: Colony formation assay of TDO2- or AhR-depleted cells with Kyn; format: cell-based, mouse; conditions: Dox/Kyn co-treatment
Method: as §1, §2, §4

[11] = tested on: Raw264.7; assay: Transwell migration assay of macrophages in conditioned media; format: cell-based, mouse; conditions: co-treatment with CXCL5; SX-682 1 μM, 36 hr
Method: Two-way ANOVA analysis. […] Dox food was applied at day 5 post-orthotopic injection to induce TDO2 knockdown in vivo. n=4 per group. n.s.P>0.05, *P<0.05, […], ****P<0.0001. two-tailed t-test. […] FIGS. 12D and 12E show quantification of macrophages (F4/80+; FIG. 12D) and M2 macrophages (CD206+; FIG. 12E) in tumors shown in FIG. 12C. CyTOF data analyzed by FlowJo. Data represent mean±s.d., n=3 per group. *P<0.05, **P<0.01. two-tailed t-test. […] Recombinant CXCL5 protein (50 ng) and SX-682 (1 μM) were added to harvested condition media for 36 hr. Scale bar, 100 μm. n=3 biological replicates. Quantification is shown in lower panel. n.s. P>0.05, ***P<0.001, ****P<0.0001. two-tailed t-test. […] Clondronate liposomes or control encapsome liposomes were given intraperitoneally (100 μl) at day 2 post-orthotopic injection and three times a week. […]
Macrophages (1×10^4 for Raw264.7 and BMDM) were suspended in serum-free culture medium and seeded into 24-well Transwell inserts ([…]). […] After 24 h, the migrated macrophages were fixed and stained with crystal violet (0.05%, sigma), and then counted as cells per field of view under microscope or measured as OD590 nm (expressed as migration index) after crystal violet was dissolved.

[12] = tested on: LS180 and HT-29 cell lines; assay: Colony formation assay with Gas6 and R428; format: cell-based, human; conditions: Gas6 25 ng, 36 hr
From the text: as §8
(§9) Gas6 is a ligand of Axl and is secreted mainly by tumor-associated macrophages in the TME (Loges et al., 2010), raising the possibility that macrophage-derived Gas6 might activate Axl to support the growth of APC-deficient cancer cells.
as §4

[13] = target: T1, Axl (Mus musculus, UniProt Q00993); assay: Immunoblots for Axl and phospho-Axl; format: cell-based; conditions: APC-WT and APC-KO MC38 cells; R428 0.2 μM 24 h; rmGAS6 24 h
T1 construct: immunoblots for Axl and phospho-Axl in APC-WT and APC-KO MC38 cells after R428 treatment (0.2 μM, 24 h); endogenous in cells; host or cells: MC38 mouse colorectal cancer cells, APC-WT and isogenic APC-KO
T1 sequence (Q00993 19-888): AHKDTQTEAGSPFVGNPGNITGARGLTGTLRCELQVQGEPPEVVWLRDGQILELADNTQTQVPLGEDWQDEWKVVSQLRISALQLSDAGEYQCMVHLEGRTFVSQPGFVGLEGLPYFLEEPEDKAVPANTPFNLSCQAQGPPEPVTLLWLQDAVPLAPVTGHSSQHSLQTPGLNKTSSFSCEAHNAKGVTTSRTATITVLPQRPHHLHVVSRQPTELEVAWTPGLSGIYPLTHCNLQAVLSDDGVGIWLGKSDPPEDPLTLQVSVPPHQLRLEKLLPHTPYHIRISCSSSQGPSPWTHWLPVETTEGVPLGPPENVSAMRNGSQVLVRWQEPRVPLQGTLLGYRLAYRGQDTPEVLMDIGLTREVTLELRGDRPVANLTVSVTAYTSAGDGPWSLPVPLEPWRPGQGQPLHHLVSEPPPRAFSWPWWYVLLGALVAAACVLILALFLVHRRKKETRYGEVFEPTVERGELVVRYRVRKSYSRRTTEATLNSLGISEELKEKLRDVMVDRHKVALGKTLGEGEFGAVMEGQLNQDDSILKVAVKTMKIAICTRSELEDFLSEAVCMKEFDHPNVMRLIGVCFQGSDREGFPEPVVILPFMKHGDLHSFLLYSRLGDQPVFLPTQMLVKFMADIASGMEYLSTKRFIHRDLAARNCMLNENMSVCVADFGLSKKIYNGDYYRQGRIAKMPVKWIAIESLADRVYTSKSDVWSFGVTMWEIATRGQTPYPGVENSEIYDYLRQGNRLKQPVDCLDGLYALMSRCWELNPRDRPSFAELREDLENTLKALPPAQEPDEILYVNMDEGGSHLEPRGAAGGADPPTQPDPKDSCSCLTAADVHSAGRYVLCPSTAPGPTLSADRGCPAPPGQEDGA
From the text: as §8, §9, §3

[14] = tested on: APC-WT and APC-KO MC38 cells; assay: Cell viability assay with STF-31; format: cell-based, mouse; conditions: STF-31 24 hr, dose-dependent
[15] = tested on: Caco-2, DLD-1, and HCT-15 cell lines; assay: Immunoblot for TDO2 and β-catenin in CRC cell lines treated with XAV-939; format: cell-based, human; conditions: XAV-939 in a dose-dependent manner; WNT activity indicated by reduced level of β-catenin
Method: The motif sequence is conserved in human and mouse genes. […] GAPDH as a negative control and MYC and AXIN2 as positive controls. […] FIGS. 3K-3M show immunoblot for TDO2 and β-catenin in DLD-1 cells (FIG. 3K), Caco-2 cells (FIG. 3L), and HCT-15 cells (FIG. 3M) treated with XAV-939 in a dose-dependent manner.
Thus, APC loss induced activation of the WNT-betacatenin-TCF4 pathway resulting in TCF4-mediated upregulation of TDO2 gene transcription.
as §3

## Fc1ccc2c(/C=C/c3cccnc3)c[nH]c2c1 [680C91]
[1]
  growth and survival: but not APC intact cells
[2]
  growth and survival: impaired the growth and survival
[3]
  sensitivity of APC depleted cells to TDO2 inhibition: higher sensitivity to TDO2 inhibition
[4]; 680C91 alone
  cell death indicated by caspase-3 assay: increased cell death

## NS(=O)(=O)NCCNc1nonc1C(=NO)Nc1ccc(F)c(Br)c1 [Epacadostat]
[5]
  survival of mice bearing APC-WT MC38 tumors: did not exhibit anti-tumor effects
[6]
  survival of mice bearing APC-KO MC38 tumors: did not exhibit anti-tumor effects

## Nc1ccccc1C(=O)CC(N)C(=O)O (centres unmarked) [Kyn, kynurenine]
[7]
  cell death in iKAP model system: decreased cell death
[8]
  M2 macrophage markers: M2 macrophage markers increased
[9]
  Gas6 expression: increased Gas6 expression
[10]
  effect of Kyn on reduced colony formation after TDO2 and AhR depletion: rescued by Kyn treatment
[4]; 680C91/Kyn co-treatment
  effect of Kyn on 680C91-induced cell death: rescued by Kyn supplementation

## O=C(Nc1ccc(F)cc1)c1cnc(SCc2cc(OC(F)(F)F)ccc2B(O)O)nc1 [CXCR1/2 inhibitor]
[11]
  effect on CXCL5 rescue of macrophage recruitment: abrogated the rescue by CXCL5 supplementation

## rmGas6: mouse recombinant Gas6, ligand of Axl
[12]
  cancer cell growth in vitro: promoted cancer cell growth
[9]
  Gas6 expression: increased Gas6 expression
[13]
  Axl phosphorylation: activated Axl

## CC(C)(C)c1ccc(S(=O)(=O)NCc2ccc(C(=O)Nc3cccnc3)cc2)cc1 [STF-31]
[14]
  sensitivity of APC-KO vs APC-WT MC38 cells: higher sensitivity

## Oc1nc(-c2ccc(C(F)(F)F)cc2)nc2c1CSCC2 [XAV-939]
[15]
  TDO2 expression: TDO2 expression was decreased
